This is an account of results in US8663934B2, “Cloned transmembrane receptor for 24-hydroxylated vitamin D compounds and uses thereof” (Shriners Hospital for Children, priority 2009, dated 2014).

In one experiment the test system is wild-type mice. The note with it: cited from earlier work.
The next experiment deals with rats. The note with it: cited from earlier work.
Another experiment has as its system Cyp24a1-deficient mice. Description: Rescue of impaired fracture healing in Cyp24a1-deficient mice (tibial osteotomy). Type of experiment: in vivo, mouse. The note with it: for effect on fracture repair: daily subcutaneous injection, 24,25-(OH)2D3 6.7 μg/kg, 1α,25-(OH)2D3 67 ng/kg. Here is the method: FIG. 2: rescue of impaired fracture repair in Cyp24a1-deficient mice by treatment with 24,25-(OH)2D3. Osteotomy was performed and animals from each genotype were treated daily with vehicle, 1,25-(OH)2D3 (67 ng/kg) or 24,25-(OH)2D3 (6.7 ug/kg). The fracture callus was harvested at 14 days post-osteotomy and bone volume (BV) and tissue volume (TV) were measured by histomorphometry using the BioQuant Osteo image analysis software. WT, wild-type; cyp24a1−/−, mutant mice deficient for the Cyp24a1 gene.
A Cyp24a1-deficient mouse strain was used to determine the role of 24-hydroxylated vitamin D compounds during mammalian fracture repair. In wild-type mice, there is a significant increase in local expression of Cyp24a1 mRNA in the tibiae subjected to an osteotomy as compared to the unfractured contralateral tibiae. To identify the role of this change in gene expression on callus formation, four-month-old wild-type and Cyp24a1-deficient mice were subjected to a stabilized, transverse mid-diaphysial fracture of the tibia. Bones were collected at days 14 and 21 post-fracture and analyzed for histology and gene expression.
Control groups were injected with the vehicle (propylene glycol). […] Daily injection with 24,25-(OH)2D3 normalized the histological appearance of the callus and the measured static histomorphometric index (BV/TV, FIG. 2).

Another experiment relates to chickens. The following applies: chick fracture, treatment with metabolite alone; cited from earlier work.
In experiment [1] the target is T1, 24-hydroxylated vitamin D compound receptor (FAM57B) (Mus musculus, UniProt Q7TNV1).
T1 construct: The full-length 24-hydroxylated vitamin D compound receptor was subcloned into the pcDNA3.1 expression vector; expressed in transfected cells; host or cells: COS-7 cells, stably transfected (pcDNA3.1)
T1 sequence (Q7TNV1 1-275 isoform Q7TNV1-3): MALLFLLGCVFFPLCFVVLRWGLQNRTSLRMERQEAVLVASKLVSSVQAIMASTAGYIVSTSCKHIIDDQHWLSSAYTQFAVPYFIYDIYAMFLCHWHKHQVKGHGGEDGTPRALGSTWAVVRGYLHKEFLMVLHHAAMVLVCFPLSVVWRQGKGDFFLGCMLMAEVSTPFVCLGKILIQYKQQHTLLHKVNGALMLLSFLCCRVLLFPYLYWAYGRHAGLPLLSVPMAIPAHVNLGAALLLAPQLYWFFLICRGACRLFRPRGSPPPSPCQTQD
Description: [3H]-24,25(OH)2D3 binding assay on membrane fractions of transfected COS-7 cells. The note with it: for specific binding of radioligand to receptor (saturation): membrane fractions of COS-7 cells expressing FAM57B; for displacement of [3H]-24,25(OH)2D3 specific binding by excess cold compound: membrane fractions, excess of nonradioactive competitor. (In general: Loss of bound radioactivity is the signal in a displacement assay; it reports binding, not function.)
Description: Membrane fractions of transfected COS-7 cells are prepared by differential centrifugation (66): cells are homogenized in buffer A (25 mM HEPES, 10 mM NaCl, 1 mM DTT at pH 7.4) and centrifuged at 20,000 g for 10 minutes. The resulting supernatant is then re-centrifuged at 20,000 g for 2×30 minutes. The resulting pellet is resuspended in buffer B (25 mM HEPES, 50 mM NaCl, 5 mM EDTA, 1 mM DTT at pH 7.4) and is used as a membrane fraction for binding assays.
Binding assays are performed on ice for 60 min in buffer B using [^3H]-24R,25(OH)2D3 (50 Ci/mmol; Amersham) in the presence or absence of a 200-fold excess of nonradioactive 24,25(OH)2D3. Bound and free ligand are separated by filtration on glass microfiber filters soaked in buffer B. The filters are rinsed with 10 ml of buffer B and are counted for radioactivity using a scintillation counter (36, 37, 66). Specific binding is then calculated as total binding minus non-specific binding measured in the presence of the excess of nonradioactive ligand.
Saturation binding analysis is performed using 100 μg of membrane fraction and 0.1 to 5 nM of [^3H]-24R,25(OH)2D3 and plotting specific binding as a function of ligand concentration (FIG. 4A). Saturation binding is repeated several times to minimize intra-assay variation and calculate binding affinity with accuracy. Affinity is determined using the saturation binding algorithm of the Prism software (GraphPad Software Inc., LaJolla, Calif.).
Binding specificity is further refined by performing competition binding assays on the membrane fractions with various nonradioactive vitamin D metabolites and other steroids (FIG. 4B). Binding is performed using 1 nM of [^3H]-24R,25(OH)2D3 and 100 μg of membrane fraction. Compete binding is done using 10-200 fold excess of 24,25(OH)2D3 (control displacement curve). Compete binding is also done using 10-200 fold excess of 25(OH)D3, 24S,25(OH)2D3 (the non-natural epimer of 24,25(OH)2D3), 1α(OH)D2, 1α,24(OH)D2, 1,24,25(OH)3D3, as well as dexamethasone, estradiol, and testosterone.

The test system of the next experiment is ATF response element. Description: ATF response element luciferase reporter (Cignal AARE) in receptor-transfected COS7 cells. Type of experiment: cell-based. The following applies: saturating dose. The method, then: FIG. 5. Activation of the ATF response element following binding of 24,25(OH)2D to the 24-hydroxylated vitamin D compound receptor. COS7 cells stably transfected with an empty expression vector (vector) or with an expression vector for the 24-hydroxyvitamin D compound receptor (24,25(OH)2D rep) were transiently transfected with a reporter construct in which the luciferase reporter is under the control of an ATF response element. Transfected cells were then treated with ethanol (vehicle) or a saturating dose of 24,25(OH)2D. A renilla luciferase constitutive expression vector was co-transfected to assess efficiency of […]. Results (mean±SEM) are expressed as fold-induction over treatment with vehicle.
In certain embodiments of the present invention where the Cignal Finder reporter system is employed, COS-7 cells stably transfected with the 24-hydroxylated vitamin D compound receptor are seeded in 24-well tissue culture plates (Nunc, Roskilde, Denmark) at a density of 20,000 cells per well in growth medium (high-glucose DMEM with HEPES, 10% FBS, and 400 μg/ml of Geneticin). […] The activity of firefly and renilla luciferases are measured sequentially on a Sirius Luminometer (Berthold Detection Systems GmbH, Pforzheim, Germany). The specific luciferase activity is expressed as the ratio of firefly/renilla luciferase activity. […]

Experiment [2] has as its target T2, 24-hydroxylated vitamin D compound receptor (Mus musculus, UniProt Q7TNV1).
T2 construct: The full-length 24-hydroxylated vitamin D compound receptor was subcloned into the pcDNA3.1 expression vector; expressed in transfected cells; host or cells: COS-7 cells, stably transfected (pcDNA3.1)
T2 sequence (Q7TNV1 1-275 isoform Q7TNV1-3): T1 sequence (Q7TNV1 1-275 isoform Q7TNV1-3)
The experiment can be described thus: Cellular dielectric spectroscopy (CellKey) in COS7 cells stably transfected with the receptor. Type of experiment: cell-based. The note with it: range of compound concentrations. The method, then:
FIG. 4. Binding saturation and specificity of the 24-hydroxylated vitamin D compound receptor. A, B. The full-length 24-hydroxylated vitamin D compound receptor was subcloned into the pcDNA3.1 expression vector and expressed by stable transfection into COST cells. Membrane fractions were prepared by differential centrifugation and binding assays were performed using [^3H]-24,25(OH)2D3 in the presence or absence of an excess of nonradioactive 24,25(OH)2D3. Bound and free ligand were separated by filtration on glass microfiber filters. […] C, D. COS7 cells stably transfected with an expression vector for the 24-hydroxylated vitamin D compound receptor were plated in a cellular dielectric spectroscopy apparatus and changes in bioimpedance (dZiec), representative of binding, were measured over a range of compound concentrations. C. Response to vitamin D compounds. D. Response to steroids.
In certain embodiments of the present invention, cellular dielectric spectroscopy is used to ascertain binding specificity (124). The technology is based on applying electrical current to cells within a microplate format and measuring changes in impedance. […] The plate is installed onto the system to obtain a baseline reading. […]
Another method used to ascertain binding specificity is cellular dielectric spectroscopy (124). […] The plate is installed onto the system to obtain a baseline reading. […]

A further experiment deals with rat. The following applies: rat studies; cited from earlier work.

Entries after “also recorded” stand apart in the source; their conditions may differ.

For the molecule `CC(C)NCC(O)COc1cccc2ccccc12` (centres unmarked) [propranolol], the bone mass entry in the experiment on wild-type mice was “increase bone mass”. In addition, in the experiment with rats, the bone defects result was “repair bone defects”.
On to `C=C1/C(=C\C=C2/CCC[C@]3(C)[C@@H]([C@H](C)CCCC(C)(C)O)CC[C@@H]23)C[C@@H](O)C[C@@H]1O` [1α,25-(OH)2D3, reference compound], for which the “effect on fracture repair” value in the experiment on Cyp24a1-deficient mice was “no effect”. Besides, in the experiment with chickens, the “healing (mechanical properties of healed bones)” value is on record as “poor healing”.
For the molecule [^3H]-24R,25-(OH)2D3, the “specific binding of radioligand to receptor (saturation)” value in experiment [1] was “specific and saturable”; in experiment [1] (listed as [^3H]-24,25(OH)2D3), “saturable”.
Take `C=C1CC[C@H](O)C/C1=C/C=C1\CCC[C@]2(C)[C@@H]([C@H](C)CC[C@@H](O)C(C)(C)O)CC[C@@H]12` [24,25-(OH)2D3]: in the experiment with ATF response element, the “luciferase reporter fold-induction over treatment with vehicle” value is on record as “statistically significant”. The “changes in bioimpedance (dZiec), representative of binding” value in experiment [2] is reported as “specifically binds”; in experiment [2] (listed as 24R,25(OH)2D3) it was “binding activity specific”. The “type X collagen mRNA expression” value with Cyp24a1-deficient mice (all time points studied) is “rescued and normalized”. Moreover, the “histological appearance of the callus” value in the experiment with Cyp24a1-deficient mice (daily injection 6.7 μg/kg) is “normalized”. Also, in the experiment on Cyp24a1-deficient mice (daily injection 6.7 μg/kg, callus at 14 days post-osteotomy), the “static histomorphometric index (BV/TV)” value is on record as “normalized”. Besides, the “effect on fracture repair” value in the experiment with Cyp24a1-deficient mice was “rescue; also recorded: corrected”; with Cyp24a1-deficient mice (listed as 24,25(OH)2D3), “rescued”. Further, the “displacement of [3H]-24,25(OH)2D3 specific binding by excess cold compound” value in experiment [1] is recorded as “can be displaced”.
Consider `CC(=O)[C@H]1CC[C@H]2[C@@H]3CCC4=CC(=O)CC[C@]4(C)[C@H]3CC[C@]12C` [progesterone], for which, in experiment [1], the “displacement of [3H]-24,25(OH)2D3 specific binding by excess cold compound” value is “not”.

B1: parathyroid hormone (protein, UniProt P01270 32-115, looked up)
Parathyroid hormone: SVSEIQLMHNLGKHLNSMERVEWLRKKLQDVHNFVALGAPLAPRDAGSQRPRKKEDNVLVESHEKSLGEADKADVNVLTKAKSQ
modifications: Parathyroid hormone
notes: parathyroid hormone administered in rat fracture studies
Take B1: the fracture repair result in the experiment with rat is “improve fracture repair”.
